The target of assay [1] is Inosine-5'-monophosphate dehydrogenase 1 (Homo sapiens, UniProt P20839). As to the kind of experiment: Inhibition of human IMP dehydrogenase 1.
The target of assay [2] is Inosine-5'-monophosphate dehydrogenase 2 (Homo sapiens, UniProt P12268). As to the kind of experiment: Inhibition of human IMP dehydrogenase 2.
Assay [3] is described as follows: Inhibition of IMP dehydrogenase.

Usually Ki stands for a measure of affinity in units of concentration, obtained from inhibition or displacement. By IC50 is commonly meant the concentration needed to halve the response being measured.

Each structure is given as a SMILES string. A value given as a limit tells only on which side of the number the result lay.

Chain of Inosine-5'-monophosphate dehydrogenase 1 (P20839 whole entry): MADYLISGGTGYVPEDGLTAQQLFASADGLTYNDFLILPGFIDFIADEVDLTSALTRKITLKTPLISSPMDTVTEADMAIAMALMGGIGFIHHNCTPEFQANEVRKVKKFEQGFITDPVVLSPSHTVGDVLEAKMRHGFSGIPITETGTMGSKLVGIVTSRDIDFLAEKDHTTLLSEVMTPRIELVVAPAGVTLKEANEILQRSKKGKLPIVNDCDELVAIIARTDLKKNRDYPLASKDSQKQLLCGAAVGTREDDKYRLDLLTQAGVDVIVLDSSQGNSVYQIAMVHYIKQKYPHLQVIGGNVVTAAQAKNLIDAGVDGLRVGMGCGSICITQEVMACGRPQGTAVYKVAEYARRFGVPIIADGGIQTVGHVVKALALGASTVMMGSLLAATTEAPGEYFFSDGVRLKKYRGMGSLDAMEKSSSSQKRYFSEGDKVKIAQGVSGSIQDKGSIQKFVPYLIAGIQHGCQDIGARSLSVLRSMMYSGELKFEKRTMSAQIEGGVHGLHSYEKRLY

For `COc1c(C)c2c(c(O)c1CCO)C(=O)OC2`, the Ki came out at 15400 nM in assay [1] and 3000 nM in assay [2]. As for `C#Cc1nc(N)c2ncn([C@@H]3O[C@H](CNS(=O)(=O)CS(=O)(=O)NCCc4c(O)c5c(c(C)c4OC)COC5=O)[C@@H](O)[C@H]3O)c2n1`, the Ki in assay [1] is 520 nM; in assay [2] it was 180 nM. In the same order, the values of `COc1c(C)c2c(c(O)c1CCNS(=O)(=O)CS(N)(=O)=O)C(=O)OC2` [MYCOPHENOLIC BIS(SULFONAMIDE)] are 18200 nM and 4000 nM. Molecule `NC(=O)c1csc([C@@H]2O[C@H](CO)[C@@H](O)[C@H]2O)n1` [TIAZOFURIN] yielded an inhibitory constant (Ki) in assay [3] of 100 nM.

`NC(=O)c1c[se]c([C@@H]2O[C@H](COP(=O)(O)OP(=O)(O)OC[C@H]3O[C@@H](n4cnc5c(N)ncnc54)[C@H](O)[C@@H]3O)[C@@H](O)[C@H]2O)n1` gave a Ki in assay [3] of 40 nM.

On to `Nc1ncnc2c1ncn2[C@@H]1O[C@H](CNS(=O)(=O)CS(N)(=O)=O)[C@@H](O)[C@H]1O`, for which the Ki in assay [1] and in assay [2] was above 100000 nM in each case. Turning to `Nc1ncnc2c1ncn2[C@@H]1O[C@H](CO)[C@@H](O)[C@H]1O` [ADENOSINE], the inhibition constant (Ki) in assay [1] and in assay [2] was above 100000 nM in each case.

Take `NC(=O)c1csc([C@@H]2O[C@H](CNS(=O)(=O)CS(=O)(=O)NC[C@H]3O[C@@H](n4cnc5c(N)ncnc54)[C@H](O)[C@@H]3O)[C@@H](O)[C@H]2O)n1`: in assay [1], the half-inhibitory concentration (IC50) is 23600 nM.

Molecule `NC(=O)c1csc([C@@H]2O[C@H](COP(=O)(O)OP(=O)(O)OC[C@H]3O[C@@H](n4cnc5c(N)ncnc54)[C@H](O)[C@@H]3O)[C@@H](O)[C@H]2O)n1` [TIAZOFURIN ADENINE DINUCLEOTIDE] displayed an inhibition constant (Ki) in assay [3] of 100 nM. In other words, the sub-micromolar range.

In the case of `CCc1nc(N)c2ncn([C@@H]3O[C@H](CNS(=O)(=O)CS(=O)(=O)NCCc4c(O)c5c(c(C)c4OC)COC5=O)[C@@H](O)[C@H]3O)c2n1`, the figures for the Ki in assay [1] and in assay [2] were 820 nM and 440 nM, respectively. Turning to `COc1c(C)c2c(c(O)c1CCNS(=O)(=O)CS(=O)(=O)NC[C@H]1O[C@@H](n3cnc4c(N)nc(-c5ccccc5)nc43)[C@H](O)[C@@H]1O)C(=O)OC2`, the Ki in assay [1] is 660 nM; in assay [2], 310 nM.

As to `COc1c(C)c2c(c(O)c1CCOP(=O)(O)CP(=O)(O)OC[C@H]1O[C@@H](n3cnc4c(N)nc(-c5ccccc5)nc43)[C@H](O)[C@@H]1O)C(=O)OC2`, the affinity in assay [1] corresponds to a Ki of 70 nM.

The values above are taken from ChEMBL document CHEMBL1155788, “Bis(sulfonamide) isosters of mycophenolic adenine dinucleotide analogues: inhibition of inosine monophosphate dehydrogenase” (Bioorg Med Chem, 2008).
